Results on 1 molecule are retold here after patent publication US20140158116A1, “INHIBITING TRPA1 FOR THE TREATMENT OF ASTHMA” (Cubist Pharmaceuticals, Inc., priority 2012, published 2014).

The target of series [1] is T1, hTRPA1 (Homo sapiens, UniProt O75762). Description: Whole-cell patch clamp block of inward current through hTRPA1. The format is cell-based. The protocol: (§1) Data for TRPA1 inhibition and the selectivity of TRPA1 inhibition was obtained by this method for the compound of Formula (Ia) and included in Table 1 and Table 2. All currents were recorded in whole-cell configuration using EPC-9 and EPC-10 amplifiers and Patchmaster software (HEKA). […] The standard pipette solution consisted of 140 mM CsAsp, 10 mM EGTA, 10 mM HEPES, 2.27 mM MgCl2, 1.91 mM CaCl2, 4 mM MgATP, and 0.1-0.3 mM Na2GTP, with pH adjusted to 7.2 with CsOH. In addition, a solution containing 145 mM CsCl, 10 mM HEPES, 10 mM EGTA and 1 mM MgCl2 (pH 7.2 adjusted with CsOH) can be used. The standard bath solution contained 150 mM NaCl, 10 mM HEPES, 10 mM glucose, 4.5 mM KCl, 1 mM EGTA, 3 mM MgCl2, with pH adjusted to 7.4 with NaOH. In some instances, 2 mM CaCl2 was added in place of EGTA and the concentration of MgCl2 was reduced to 1 mM.
Data were collected either by continuous recordings at −60 mV or by applying voltage ramps from a holding potential of 0 mV every 4 s. Continuous recordings were collected at 400 Hz and digitally filtered off-line at 10 Hz for presentation. Voltage ramps were applied from −100 mV to 100 mV over the course of 400 ms, and data were collected at 10 kHz and filtered at 2.9 kHz. Inward and outward currents were analyzed from the ramps at −80 and 80 mV, respectively. Liquid junction potential correction was not used.
Solutions were switched using a gravity-fed continuous focal perfusion system. To achieve rapid temperature changes, two temperature control and perfusion systems were employed simultaneously. For temperatures ≧22° C., a Warner Instruments bipolar temperature controller (TC-344B) and inline heater (SHM-8) were used. […] Temperatures were confirmed using a thermistor (Warner Instruments, TA-29), with temperatures at the recorded cell estimated to be within +/−2° C. of those reported.
IC50 of compounds was estimated by testing each compound at 5 micromolar and 500 nanomolar. […] IC50 for compounds between 500 nanomolar and 5 micromolar was similarly estimated. Compounds blocking 50% or more at 500 nanomolar are retested at multiple concentrations, and the % block at each is fitted by standard equations to determine IC50 accurately using a 5-6 point concentration/response experiment.

In another series the target is T2, hTRPV6 (Homo sapiens, UniProt Q9H1D0).
T2 sequence (Q9H1D0 1-765): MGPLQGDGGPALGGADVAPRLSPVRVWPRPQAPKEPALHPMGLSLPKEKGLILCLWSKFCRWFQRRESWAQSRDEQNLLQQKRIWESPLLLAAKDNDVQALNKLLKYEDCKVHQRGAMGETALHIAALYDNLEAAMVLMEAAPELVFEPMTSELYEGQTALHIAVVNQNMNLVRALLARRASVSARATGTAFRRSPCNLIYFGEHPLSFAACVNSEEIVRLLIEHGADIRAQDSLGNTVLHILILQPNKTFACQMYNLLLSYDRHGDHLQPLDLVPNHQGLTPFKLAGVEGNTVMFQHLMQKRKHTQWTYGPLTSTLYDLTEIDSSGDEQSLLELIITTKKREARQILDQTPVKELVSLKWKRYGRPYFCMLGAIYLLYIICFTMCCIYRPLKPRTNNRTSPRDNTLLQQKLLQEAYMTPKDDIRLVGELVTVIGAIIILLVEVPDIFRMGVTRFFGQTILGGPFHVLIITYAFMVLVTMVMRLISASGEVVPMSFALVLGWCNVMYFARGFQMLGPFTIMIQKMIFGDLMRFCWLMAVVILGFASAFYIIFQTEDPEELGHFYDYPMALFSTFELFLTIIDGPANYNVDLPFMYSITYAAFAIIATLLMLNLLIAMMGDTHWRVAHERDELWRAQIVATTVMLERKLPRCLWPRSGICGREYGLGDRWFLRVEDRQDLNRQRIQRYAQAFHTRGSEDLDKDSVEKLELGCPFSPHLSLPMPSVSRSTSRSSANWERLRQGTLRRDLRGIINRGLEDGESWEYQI
Put plainly: Patch clamp selectivity, hTRPV6. The format is cell-based. The protocol: as §1
(§2) Data were collected either by continuous recordings at −60 mV or by applying voltage ramps from a holding potential of 0 mV every 4 s. […] Inward and outward currents were analyzed from the ramps at −80 and 80 mV, respectively. […]
(§3) Solutions were switched using a gravity-fed continuous focal perfusion system. […] Temperatures were confirmed using a thermistor (Warner Instruments, TA-29), with temperatures at the recorded cell estimated to be within +/−2° C. of those reported. […]

A further series deals with hTRPM8 (Homo sapiens, UniProt Q7Z2W7). Put plainly: Patch clamp selectivity, hTRPM8. The format is cell-based. The method, then:
as §1, §2, §3

The target of series [2] is T1, hTRPA1. Description: hTrpA1 IC50 measured in 1% RSA (rat serum albumin). The series is classed as cell-based.
The nature of series [3]: Human plasma protein binding by equilibrium dialysis. The format is in vitro ADME. To be noted: percentage bound. The protocol: The amount of compound in buffer (free fraction) and the amount of compound associated with the plasma fraction is determined by equilibrium dialysis; the amount of compound bound is expressed as a percentage. (Banker et al., Journal of Pharmaceutical Sciences (2003) 92(5): 967-74.)

Series [4] relates to serum biomarkers of hepatotoxicity (ALT, AST, ALP, GGT). Put plainly: Hepatotoxicity serum biomarker study in dogs, oral dose. The series is classed as in vivo, dog. Conditions: dogs; 50 mg/kg PO. The protocol: The compound of Formula (Ia) was orally dosed to […] at dose levels of 5, 15 or 50 mg/kg using 30% Sulfobutylether β-cyclodextrin as the vehicle for assessment of safety as measured via serum chemistry biomarkers of hepatotoxicity or bile duct injury FIG. 5A, showing measurements of alanine aminotranferease [ALT], aspartate aminotranferease [AST], alkaline phosphatase [ALP] and gamma-glutamyl transferase [GGT] in the dogs at each dose level (each bar represents a measurement from 1 dog in the study). […] For example, the ALT levels were elevated up to about 60-fold in male dogs and up to about 130-fold in female beagle dogs following a single PO dose of 50 mg/kg.

T1 sequence (O75762 whole entry): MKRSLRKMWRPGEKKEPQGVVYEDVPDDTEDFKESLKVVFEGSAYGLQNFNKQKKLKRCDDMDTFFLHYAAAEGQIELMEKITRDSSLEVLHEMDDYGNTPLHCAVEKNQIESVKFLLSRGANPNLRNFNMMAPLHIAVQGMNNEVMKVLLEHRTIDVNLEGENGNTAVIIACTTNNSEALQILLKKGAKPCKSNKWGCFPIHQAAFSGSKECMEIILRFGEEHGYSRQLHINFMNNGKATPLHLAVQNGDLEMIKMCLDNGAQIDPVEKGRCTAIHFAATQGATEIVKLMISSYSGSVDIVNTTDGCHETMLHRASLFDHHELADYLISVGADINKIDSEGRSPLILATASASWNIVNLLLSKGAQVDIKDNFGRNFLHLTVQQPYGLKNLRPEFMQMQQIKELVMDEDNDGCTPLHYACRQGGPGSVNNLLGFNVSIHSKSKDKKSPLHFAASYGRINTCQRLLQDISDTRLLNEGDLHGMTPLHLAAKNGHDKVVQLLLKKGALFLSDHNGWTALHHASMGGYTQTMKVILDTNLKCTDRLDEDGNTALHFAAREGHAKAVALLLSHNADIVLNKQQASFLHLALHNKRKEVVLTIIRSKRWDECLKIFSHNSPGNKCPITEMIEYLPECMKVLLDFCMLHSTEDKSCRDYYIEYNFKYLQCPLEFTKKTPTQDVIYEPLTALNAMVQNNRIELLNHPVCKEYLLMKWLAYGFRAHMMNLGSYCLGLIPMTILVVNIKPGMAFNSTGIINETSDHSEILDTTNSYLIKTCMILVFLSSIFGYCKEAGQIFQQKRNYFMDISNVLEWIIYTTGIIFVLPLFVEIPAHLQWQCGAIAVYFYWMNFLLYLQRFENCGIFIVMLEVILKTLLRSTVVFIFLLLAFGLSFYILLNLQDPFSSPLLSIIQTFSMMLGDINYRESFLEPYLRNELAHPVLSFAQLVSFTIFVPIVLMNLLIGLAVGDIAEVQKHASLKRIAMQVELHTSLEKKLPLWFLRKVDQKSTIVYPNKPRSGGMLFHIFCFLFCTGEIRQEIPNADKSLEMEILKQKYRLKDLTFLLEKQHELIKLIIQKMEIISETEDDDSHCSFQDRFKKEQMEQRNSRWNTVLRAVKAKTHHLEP
hTRPM8, sequence (Q7Z2W7 whole entry): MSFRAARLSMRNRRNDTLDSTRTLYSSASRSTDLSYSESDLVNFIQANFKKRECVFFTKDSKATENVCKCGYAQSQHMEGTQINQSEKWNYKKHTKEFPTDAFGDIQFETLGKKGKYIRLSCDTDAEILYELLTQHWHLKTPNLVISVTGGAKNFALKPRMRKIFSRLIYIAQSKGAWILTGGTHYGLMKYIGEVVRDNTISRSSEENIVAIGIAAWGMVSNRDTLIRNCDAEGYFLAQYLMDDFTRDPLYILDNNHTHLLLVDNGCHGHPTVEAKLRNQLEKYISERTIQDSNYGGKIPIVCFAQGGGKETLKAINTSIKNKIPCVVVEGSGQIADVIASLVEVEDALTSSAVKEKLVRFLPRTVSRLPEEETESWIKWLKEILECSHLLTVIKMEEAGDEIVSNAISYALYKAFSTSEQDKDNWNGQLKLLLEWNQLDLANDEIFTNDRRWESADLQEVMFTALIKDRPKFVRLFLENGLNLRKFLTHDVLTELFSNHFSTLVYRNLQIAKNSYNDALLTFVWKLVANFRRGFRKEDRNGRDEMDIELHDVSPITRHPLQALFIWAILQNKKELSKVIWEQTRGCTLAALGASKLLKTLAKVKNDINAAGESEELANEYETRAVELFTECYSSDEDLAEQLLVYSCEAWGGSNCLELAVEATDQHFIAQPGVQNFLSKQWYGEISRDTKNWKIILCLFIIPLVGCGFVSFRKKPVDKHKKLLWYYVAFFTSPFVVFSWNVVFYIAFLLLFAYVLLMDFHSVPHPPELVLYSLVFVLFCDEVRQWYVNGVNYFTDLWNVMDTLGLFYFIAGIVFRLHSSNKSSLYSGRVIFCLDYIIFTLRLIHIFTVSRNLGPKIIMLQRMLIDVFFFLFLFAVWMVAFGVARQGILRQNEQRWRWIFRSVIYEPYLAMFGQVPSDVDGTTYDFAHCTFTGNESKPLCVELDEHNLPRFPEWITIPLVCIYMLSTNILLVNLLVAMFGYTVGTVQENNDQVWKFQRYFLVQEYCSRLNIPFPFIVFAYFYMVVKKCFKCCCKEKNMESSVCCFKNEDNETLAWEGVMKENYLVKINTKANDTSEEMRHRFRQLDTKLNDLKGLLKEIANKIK

In the case of `C[C@H]1CCCN1c1ncc(-c2cccc(NC(=O)Cn3cnc4c3c(=O)n(C)c(=O)n4C)n2)cn1` [Formula (Ia)], the IC50 on hTRPA1 [1] (hTRPA1, Human, current activation 10 micromolar AITC, whole cell patch, read-out: IC50 Inward current) was 0.093 ± 0.022 µM; on hTRPA1 [1] (hTRPA1, class symbol, read-out: Potency (IC50) Human), 0.05 to 0.1 µM; against hTRPV6 (Voltage, Inward (−80 mV)), 34 µM; at hTRPM8 (100 micromolar Menthol, Inward (−80 mV)), 19 µM; at hTRPA1 [2], 5.3 µM. Also, the “selectivity for block of TRPA1 over all other tested channels” value at hTRPA1 [1] (versus the eight channels of Table 2) is given as “at least 100 fold”. Besides, the “Fold Selectivity Compared to TRPA1” value is recorded as ~370 fold on hTRPV6 and ~200 fold on hTRPM8. Also, the fraction unbound in series [3] is > 0.01. Besides, the “effect on serum biomarkers of hepatotoxicity” value in series [4] is recorded as “did not elevate serum biomarkers of hepatotoxicity or acute phase response”.
